Reference: US10975059B2, “Small molecule BRD4 modulators for HIV epigenetic regulation” (The Board of Regents of The University of Texas System, priority 2017, dated 2021)

What was measured:
[1] = system: PMA-induced HIV activation in J-Lat cells (10.6); assay: HIV-suppression model, PMA-stimulated J-Lat cells (GFP, flow cytometry); type: cell-based; settings: 24 hours; for effect on PMA-induced HIV activation (GFP+%): PMA + compound 10 μM
[2] = system: BD1 and BD2 of BET proteins (BRD4, BRD2, BRD3, BRDT); assay: TR-FRET binding to BD1 and BD2 of BET proteins
Description: Details are available in the Supplementary Methods.

Tat at HIV 5'-LTR = assay: CHIP-qPCR, Tat recruitment to HIV promoter; type: cell-based; settings: J-Lat, 10 μM, 24 hours
Experimental: ChIP assay was performed using a ChIP-IT Express Kit (Active Modify, USA) according to the manufacturer's instructions. […] Cells were harvested and washed. Cell pellets were re-suspended in 10 ml PBS buffer and fixed with 37% formaldehyde to cross-link DNA and proteins. The fixation reaction was stopped by adding 1.1 ml of 10× Glycine for 5 min at RT. Cells were centrifuged and the supernatants were removed, followed by re-suspension of cells in ice-cold Lysis Buffer on ice for 30 min. Cells were centrifuged at 5,000 rpm for 10 min to pellet the nuclei. Nuclei pellets were re-suspended in 700 μl shearing buffer plus 3.2 μl of PIC and 3.2 μl of PMSF, and were then sonicated using the determined conditions. Sheared chromatin samples were used to set up ChIP reactions by adding the magnetic beads and 5 μg of anti-Tat (1 mg/ml, Thermo Fisher, MA1-71509) or control mouse IgG (2.5 mg/ml, Cell Signaling, #5415) antibody (overnight rotation at 4° C.). After several times of washing by ChIP buffers 2, the chromatin was reverse cross-linked and treated with proteinase K. The eluted DNA were cleaned up with phenol-chloroform and used in real time-PCR. The results were analyzed by the fold enrichment method with the formula % enrichment=2−(CT IP−CT mock).

ELL2 = ELL2 protein (WB) and mRNA (Q-PCR) in J-Lat cells; type: cell-based; settings: vs PMA alone, WT J-Lat, 24 hours
Experimental: (§1) Target protein expression in WT and BRD4-KO J-Lat cells (10.6 full length) were measured by western blotting. […] The cells were harvested, washed and then lysed in NP-40 cell lysis buffer (containing 20 mM Tris-HCl, […] of NaCl, 0.2 mM EDTA, 1% NP40, protease inhibitor cocktail, and 1 mM PMSF) by rotation at RT for 1 hour. Cell lysates were centrifuged at 4° C. and the supernatants were collected, followed by measurement of total protein concentration in the supernatants by using Microplate BCA Protein Assay Kit. 20 μg proteins were separated using SDS-PAGE gel and then transferred to Immuno-Blot PVDF Membrane. The membrane was blocked (5% skimmed milk powder in TBST) and then incubated with individual protein-specific antibodies (CDK9, Cyclin T1, Cyclin T2, ELL2, p-RNA Pol II-CTD (Ser2), BRD2, BRD4, NF-κB, or cellular GAPDH) for overnight at 4° C. After washing three times in TBST, the membrane was incubated with anti-rabbit or anti-mouse IgG-HRP, depending on the primary antibody used. The membrane was incubated in Super Signal West Pico Chemiluminescent Substrate. Molecular weights of target proteins were assessed by comparing with markers.

RNAPII = assay: Western blot of phosphorylated RNAPII (Ser 2 CTD) in J-Lat cells; type: cell-based; settings: vs PMA alone
Experimental: as §1

[3] = system: latent HIV in J-Lat cells (10.6); assay: HIV-activation screening in J-Lat cells (GFP, flow cytometry); type: cell-based; settings: compound alone, 10 μM, 24 hours
[4] = system: HIV transcription in J-Lat cells; assay: qPCR of HIV RNAs (Gag, 3'-LTR) in J-Lat cells; type: cell-based; settings: for HIV mRNAs (Gag and 3'-LTR RNA levels): PMA-activated J-Lat, 24 hours after treatment
CDK9 binding to Tat = assay: Tat Co-IP, CDK9 binding, J-Lat cells; type: cell-based; settings: vs PMA alone, 24 hours
Experimental: Treated J-Lat cells were harvested, washed and lysed in 1 ml NP-40 cell lysis buffer as described above in western blotting. The lysate was cleared by centrifugation and the supernatant was collected. Protein concentration in collected supernatant was measured (Microplate BCA Protein Assay Kit). Equal amounts of proteins from different treatments were incubated with […] of anti-Tat (Thermo Fisher, Cat. No. MA1-71509) or anti-BRD4 (Thermo Fisher, Cat. No. 730037) antibody or normal mouse IgG (Cell Signaling, Cat. No. 5415) for overnight at 4° C. The immune complexes were precipitated by 50 μl protein G-conjugated magnetic beads (Thermo Fisher, Cat. No. 10003D). Beads were washed 6 times using cold NP-40 cell lysis buffer and then subjected to SDS-PAGE electrophoresis. The membranes were immunoblotted with anti-CDK9 primary antibody, followed by incubation with HRP-conjugated secondary antibody.

[5] = system: HIV LTR chromatin in J-Lat cells; assay: High-resolution MNase nucleosomal mapping of HIV LTR; type: cell-based; settings: 10 μM 24 hours, then PMA 24 hours, vs NC
BRD4 at HIV 5'-LTR = assay: CHIP-qPCR, BRD4 binding to HIV promoter; type: cell-based; settings: activated and resting J-Lat, vs no compound control
[6] = system: HIV (US-1 strain) in human CD4 T cells; type: cell-based; settings: for HIV infection in activated CD4 T cells (intracellular p24): 0-8 μM, three days after viral exposure
BRD4 BD1 domain = BRD4 BD1 domain (Homo sapiens, UniProt O60885); assay: TR-FRET binding assay, BRD4 BD1
[7] = system: non-specific cellular proteins; assay: Binding to a broader panel of non-specific cellular proteins
[8] = system: HIV transcription in PBMC of HIV-infected subjects; assay: Ex vivo HIV Gag RNA in PBMCs of viremic HIV-infected subjects (RV21); type: cell-based; settings: 2 days
[9] = system: HIV in BRD4-KO J-Lat cells; type: cell-based
J-Lat cells = assay: J-Lat cell viability (Aqua blue, flow cytometry)
[10] = target: T1, non-BET bromodomain protein CBP (Homo sapiens, UniProt Q92793); assay: TR-FRET binding assay, CBP
T1 construct: purchased Cayman Chemical
T1 sequence (Q92793 1085-1192 limits assumed): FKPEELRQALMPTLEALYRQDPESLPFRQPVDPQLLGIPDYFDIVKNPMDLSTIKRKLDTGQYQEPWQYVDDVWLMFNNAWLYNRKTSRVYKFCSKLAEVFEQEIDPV
Experimental: A series of concentrations of the compound from 0.01 nM to 100 μM were added into a 384 well test plate and mixed with other reaction components based on the instructions from vendor followed by incubation 1 h at room temperature. […] The plates were read in time-resolved format by exciting the sample at 340 nm and reading emissions at 620 and 670 nm, using a 100 μs delay and a 500 μs window at a Tecan M1000 pro reader.

CDK9 binding to BRD4 = CDK9 binding to BRD4 (Homo sapiens, UniProt O60885); assay: BRD4 Co-IP, CDK9 binding, J-Lat cells; type: cell-based; settings: vs PMA alone, 24 hours
human PBMCs = type: cell-based
HIV in human PBMCs = assay: qPCR of HIV DNA and Gag RNA in in vitro infected PBMCs; type: cell-based; settings: PHA-activated PBMCs, 4 μM
BRD4 BD2 = BRD4 BD2 (Homo sapiens, UniProt O60885); assay: TR-FRET binding assay, BRD4 BD2
[11] = system: HIV particles from RV21 PBMC; assay: HIV particles in culture supernatants, reporter TZM-bl assay; type: cell-based; settings: vs no treatment control
Description: We next assessed assess the HIV-suppressive activity of ZL0580 ex vivo. RV21 is ART naïve, chronic HIV infection established by US MHRP and use of PBMC samples from this cohort in our group has been previously published (25). PBMC from RV21 subjects (n=8) were stimulated with PHA to induce HIV transcriptional activation in the absence (0 Mm) or presence of ZL0580 ([…]).

RV254 PBMCs = assay: Viability of RV254 PBMCs; type: cell-based, human; settings: vs ART alone or NC
[12] = system: HIV in unactivated human CD4 T cells; assay: HIV in un-activated (resting) CD4 T cells (intracellular p24); type: cell-based; settings: 2 μM and 4 μM, Day 6
Experimental: We also evaluated the impact of ZL0580 on HIV in un-activated (resting) CD4 T cells. Normal PBMCs were not stimulated but directly infected with HIV by spinoculation. 24 hours after HIV infection, cells were extensively washed and treated with ZL0580 (2 μM and 4 μM) or not (NC). As expected, compared to activated cells, HIV replication kinetics in un-activated CD4 T cells is slower.

COC(=O)[C@@H]1CCCN1S(=O)(=O)c1ccc(NC(=O)Nc2cccc(C(F)(F)F)c2)cc1 [ZL0506]
effect on PMA-induced HIV activation (GFP+%) [1]: modestly suppress HIV

Cc1sc2c(c1C)C(c1ccc(Cl)cc1)=N[C@@H](CC(=O)OC(C)(C)C)c1nnc(C)n1-2 [JQ1, reference compound]
binding to BD1 and BD2 of BET proteins [2]: non-selectively binds to both BD1 and BD2 all four BET proteins
recruitment of Tat to HIV promoter (Tat at HIV 5'-LTR): enhanced binding of Tat to HIV promoter
ELL2 protein (ELL2): increased its level
RNAPII activation (phosphorylation of CTD Ser2) (RNAPII): potentiated its activation
activation of latent HIV (GFP expression) [3]: activates HIV
HIV mRNAs (Gag and 3'-LTR RNA levels) [4]: enhances their levels
CDK9 binding to Tat (CDK9 binding to Tat): enhanced CDK9 binding to Tat
nucleosomal DNA protection in HIV LTR [5]: reduced nucleosomal DNA protection in several amplicon regions
BRD4 binding to HIV promoter (BRD4 at HIV 5'-LTR): reduced this binding
effect on PMA-induced HIV activation (GFP+%) [1]: synergistically enhances PMA-stimulated HIV activation

Cc1cc(N=Nc2ccc(S(=O)(=O)NC3CCCC3)cc2)c(N)cc1O [ZL0454]
HIV infection in activated CD4 T cells (intracellular p24) [6]: did not suppress HIV in CD4 T cells
activation of latent HIV (GFP expression) [3]: modestly activate HIV
effect on PMA-induced HIV activation (GFP+%) [1]: synergistically enhanced PMA-induced HIV activation

O=C(Nc1ccc(C(F)(F)F)cc1)Nc1ccc(S(=O)(=O)N2CCCC2C(=O)Nc2ccccc2)cc1 (stereo in doubt) [ZL0580, (R)—N-Phenyl-1-((4-(3-(4-(trifluoromethyl)phenyl)ureido)phenyl)sulfonyl)pyrrolidine-2-carboxamide]
IC50 (BRD4 BD1 domain): 163 nM
binding activity to non-specific cellular proteins [7]: no or weak binding activity
recruitment of Tat to HIV promoter (Tat at HIV 5'-LTR): reduced Tat recruitment to HIV promoter
ELL2 protein (ELL2): substantially reduced ELL2 protein
HIV Gag mRNA ex vivo ([8]; PHA-stimulated RV21 PBMC (n=8)): suppress HIV transcription ex vivo in all eight PBMC samples
reduction of RNA levels in some subjects ([8]; PHA-stimulated RV21 PBMC): greater than 10 fold
RNAPII activation (phosphorylation of CTD Ser2) (RNAPII): reduced RNAII activation
HIV infection in activated CD4 T cells (intracellular p24) [6]: suppress HIV in activated human CD4 T cells in a dose-dependent manner
productive HIV infection in CD4 T cells ([6]; single treatment 8 μM): almost complete loss of productive HIV infection in CD4 T cells
Gag and 3'-LTR RNA expression, vector control cells [9]: substantially inhibit Gag and 3′-LTR RNA expression
HIV suppression (GFP) in BRD4-KO cells [9]: failed to induce HIV suppression in BRD4-KO cells
HIV suppression in BRD4-KO cells with exogenous BRD4 expression [9]: restored to large extent the ability of ZL0580 to suppress HIV in these cells
inhibition of Gag and 3'-LTR RNA, BRD4-KO cells [9]: largely abrogated in the BRD4-KO cells
HIV mRNAs (Gag and 3'-LTR RNA levels) [4]: reduces both Gag and 3′-LTR RNA levels
HIV reactivation by LRAs after pre-treatment ([4]; resting J-Lat, single dose 10 μM for 3 days, then SAHA or Prostratin): renders J-Lat cells more resistant to HIV reactivation by SAHA or Prostratin
kinetics of HIV transcription (3'-LTR RNA) ([4]; single treatment 10 μM, PMA-activated or resting, Day 2, 7, 14): suppresses both PMA-stimulated and basal HIV transcription through Day 14 after treatment
concentrations without significant cell death (J-Lat cells; 0-80 μM, 1 & 3 days): below 40 μM
cell death vs NC (J-Lat cells; 10 μM, Day 2, 7 and 14, PMA-activated and un-stimulated): did not cause significant cell death
IC50 [10]: > 10000 nM
CDK9 binding to BRD4 (CDK9 binding to BRD4): enhanced CDK9 binding to BRD4
concentrations without significant PBMC death (human PBMCs; 0-80 μM): below 40 μM
PBMC viability (human PBMCs; 8 μM vs NC, PHA-activated, 3 days): comparable between NC and ZL0580 treatment
HIV transcription (Gag RNA) in PBMCs (HIV in human PBMCs): reduced HIV transcription in PBMCs
cell-associated HIV DNA (HIV in human PBMCs): did not significantly alter HIV DNA levels
CDK9 binding to Tat (CDK9 binding to Tat): reduced CDK9 binding to Tat
nucleosomal DNA protection in HIV LTR [5]: enhanced nucleosomal DNA protection in the majority of amplicon regions (6-20)
IC50 (BRD4 BD2): 1070 nM
BRD4 binding to HIV promoter (BRD4 at HIV 5'-LTR): promoted BRD4 binding to HIV promoter
dose dependence of suppression of PMA-induced HIV activation ([1]; PMA + 0, 1, 10, 20 μM): suppresses PMA-induced HIV activation in dose-dependent manner
effect on PMA-induced HIV activation (GFP+%) [1]: suppresses PMA-induced HIV activation
production of HIV particles in cell culture supernatants [11]: significantly reduced
toxicity to RV254 PBMCs (RV254 PBMCs): did not cause significant toxicity to these cells
HIV in unactivated CD4 T cells (p24+%) [12]: dose-dependently suppresses HIV in unactivated CD4 T cells
